Read-outs that look alike come from different tables or passages of the source.
Experiments:
[1] = tested on: HCV genotype 1b replicon; assay: HCV replicon assay (Zluc luciferase); type: cell-based; settings: read-out: HCV Replicon EC50
In short: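 Zluc Huh-7 cells with HCV genotype 1b replicon and luciferase reporter treated with 5-fold dilutions (100 μM to 0.0000512 μM final) in duplicate, or at 1 and 10 μM. Luminescence read with ONE-glo; EC50 from dose-response fits, or % inhibition at the fixed concentrations.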

[2] = Cytotoxicity evaluation, CellTiter-Blue Cell Viability Assay; settings: human
[3] = Stability in simulated gastric fluid; type: in vitro ADME; settings: simulated gastric fluid with pepsin, 100 μM, 2 hours, 37° C.
Description: (§1) Stability in Simulated Gastric and Intestinal Fluids: Simulated gastric and intestinal fluids containing pepsin and pancreatin respectively were prepared according to the U.S. Pharmacopoeia USP291 procedure(www.pharmacopeia.cn/v29240/usp29nf24s0_ris1s126.html). Each test compound (final concentration 100 μM) was incubated in duplicate in the appropriate fluid for 2 hours at 37° C. The samples were quenched with […] cold acetonitrile, vortexed for 30 seconds and then centrifuged at 16100×g for 10 min. The supernatants were analyzed by HPLC on a C-18 column with UV detection at 252 nm. The time zero samples were prepared by adding SGF or SIF fluid to the quenching solvent followed by the test compound. Stability of the compound was determined by peak area of the test compound after incubation and calculated as percent of the peak area observed at time zero.

[4] = Stability in simulated intestinal fluid; type: in vitro ADME; settings: simulated intestinal fluid with pancreatin, 100 μM, 2 hours, 37° C.
Description: as §1

[5] = tested on: fresh human hepatocytes; assay: Release of active metabolite in fresh human hepatocytes; type: in vitro ADME; design: key to FHH TP (6 hr): + ≤ 15; 15 < ++ ≤ 50; 50 < +++ ≤ 100; 100 < ++++; BLD = below limit of detection; settings: 10 μM
Description: (§2) Plates of fresh human and mouse hepatocytes were obtained on ice. The medium was removed and replaced with hepatocyte culture medium (William's E supplemented with penicillin-streptomycin, 1% L-glutamine, 1% insulin-transferrin-selenium and 0.1 μM Dexamethasone (Invitrogen) or with Invitro GRO HI medium complemented with Torpedo antibiotics (Celsis)). Cells were left overnight in an incubator at 37° C. to acclimatize to culture and the medium.
(§3) Hepatocyte incubations were conducted at a final volume of 0.5 mL hepatocyte culture medium/well (0.8 million cells/well for human and 0.5 million cells/well for mouse; 12 well plate no overlay, collagen coat). Culture medium from overnight incubation of cells was removed and replaced with fresh medium, pre-warmed to 37° C., containing 10 μM of test compound from a stock solution in DMSO (final DMSO concentration was 0.1%). At each specific time point, incubation medium was removed and cell monolayers were carefully washed two times with ice-cold PBS. Following the last wash, all PBS was carefully removed and 1.0 mL of extraction solution (ice-cold 70% methanol/30% water) added. Cells were scraped off and suspended in the extraction solution, transferred to 2 mL polypropylene microfuge tubes and intracellular contents extracted overnight at −20° C.
(§4) After the overnight treatment the cellular extracts were prepared by centrifugation at 16,000×g for 10 min to remove cellular debris. The remaining sample was then dried using a refrigerated centrivap concentrator. Dry extracts were reconstituted in 1000 μL of HPLC-grade water and centrifuged at 16,000×g for 10 min. Aliquots (100 μL each) of the supernatant were transferred into a 96 well plate and internal standard (4 ng/mL final concentration) was added as the internal standard (IS) for LC-MS/MS analysis.
(§5) The incubation time points were 6, 24 and 48 hours for human hepatocytes and 1, 4, 8, 12 and 24 hours for mouse hepatocytes.

[6] = tested on: fresh mouse hepatocytes; assay: Release of active metabolite in fresh mouse hepatocytes; type: in vitro ADME; settings: 10 μM
Description: as §2, §3, §4, §5

[7] = Plasma nucleoside pharmacokinetics after single oral dose in CD-1 mice; type: in vivo; settings: single oral dose 10 mg/kg in PEG 200
In short: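 Mouse plasma was extracted by acetonitrile/0.2% formic acid protein precipitation using 2′-MeG-D3 or tiapride as internal standard. Nucleoside was quantified by positive-ion LC-MS/MS after C18 gradient separation. Calibration spanned 0.500 (LLOQ) to 200 ng/mL.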

[8] = Plasma prodrug and nucleoside pharmacokinetics after single oral dose in cynomolgus monkeys; type: in vivo; settings: cynomolgus monkey, plasma, single oral 10 mg/kg
Description: (§6) For each compound, a single oral dose at 10 mg/kg in PEG 200 (dose volume 3 mL/kg) was administered to cynomolgus monkeys. Untreated animals were used for the collection of control liver. Plasma samples were collected at 0.5, 1, 2, 4, 6, 8, 12 and 24 hours for compound 37, diastereomer 2.
Plasma samples were analyzed for the prodrug and nucleoside by LC-MS/MS. For protein precipitation and extraction, each plasma sample (50 μL) was treated with 500 μL of 0.2% formic acid in acetonitrile and 20 μL of an appropriate internal standard working solution. After vortexing and centrifugation, 500 µL of the sample extracts were transferred to a new plate, dried under N2 at ˜28° C. and reconstituted with 75 μL of 0.2% FA in water. The extracts were chromatographed on an Aquasil C18 column using a gradient system of 0.2% formic acid in water and acetonitrile. The analytes were detected and quantified by tandem mass spectrometry in positive ion mode on an MDS Sciex API4000 equipped with a Turbo Ionspray® interface.

[9] = Liver triphosphate pharmacokinetics after single oral dose in cynomolgus monkeys; type: in vivo; settings: normalized to 1 μmol/kg dose
Description: as §6
Liver samples were analyzed for the relevant nucleoside triphosphate by LC-MS/MS. […] Appropriate internal standard solution was added to the homogenate followed by neutralization with 20% ammonium hydroxide solution and addition of 500 μL 1% formic acid. The tissue samples were extracted by weak anion exchange solid phase extraction (SPE). Post extraction, the eluates were evaporated under nitrogen, followed by reconstitution before injection onto the LC-MS/MS system.

[10] = tested on: Zluc cells; assay: Cytotoxicity evaluation, CellTiter-Blue Cell Viability Assay; settings: Zluc cells, CellTiter-Blue

| SMILES | EC50 ([1]; Hepatitis C virus, 72 h) | CC50 [2] | EC50 ([1]; Zluc cells, 72 hours) | SGF stability (percent remaining) [3] | SIF stability (percent remaining) [4] | FHH TP AUC [5] | FHH TP Cmax [5] | FHH TP (6 hr) ([5]; 6 hr) | FHH TP (24 hr) ([5]; 24 hr) | FHH TP (48 hr) ([5]; 48 hr) | MsH AUC [6] | MsH Cmax [6] | Ms Plasma nucleoside Cmax [7] | Tmax [8] | AUC(0-t) ([8]; normalized to 1 μmol/kg dose, read-out: Plasma prodrug AUC0-24) | Cmax ([8]; normalized to 1 μmol/kg dose, read-out: Plasma prodrug Cmax) | Nucleoside triphosphate in Liver C6 ([9]; 6 hours post dose, 10 mg/kg oral) | Nucleoside triphosphate in Liver AUC0-24 ([9]; single oral 10 mg/kg) | Nucleoside triphosphate in Liver Cmax ([9]; single oral 10 mg/kg) | CC50 [10] |
| --- | --- | --- | --- | --- | --- | --- | --- | --- | --- | --- | --- | --- | --- | --- | --- | --- | --- | --- | --- | --- |
| CCOC(=O)COP(=O)(OC[C@H]1O[C@@H](n2ccc(=O)[nH]c2=O)[C@](C)(Cl)[C@@H]1O)Oc1ccccc1 (mixture of isomers) [Compound 72 Mixture of P-Diastereoisomers] | > 10 µM | > 50 µM | – | – | – | – | – | – | – | – | – | – | – | – | – | – | – | – | – | – |
| CC(C)OP1(=O)OC[C@H]2O[C@@H](n3ccc(=O)[nH]c3=O)[C@](C)(Cl)[C@@H]2O1 (single isomer, unassigned) [Compound 37 Diastereomer 2] | – | – | 1 to 10 µM | ++++ (75% < ++++) | ++++ (75% < ++++) | +++ (500 < +++ ≤ 1500) | ++ (15 < ++ ≤ 50) | BLD^b | ++ (15 < ++ ≤ 50) | ++ (15 < ++ ≤ 50) | ++++ (1500 < ++++) | ++++ (100 < ++++) | +++ (50 < +++ ≤ 100) | 4 h | > 1.5 µM·h | > 100 nM | ++++ (100 < ++++) | ++++ (1500 < ++++) | ++++ (100 < ++++) | > 50 µM |
| CCOC(=O)COP(=O)(OC[C@H]1O[C@@H](n2ccc(=O)[nH]c2=O)[C@](C)(Cl)[C@@H]1O)Oc1ccccc1 (single isomer, unassigned) [Compound 72 Diastereomer 1] | > 10 µM | > 50 µM | – | – | – | – | – | – | – | – | – | – | – | – | – | – | – | – | – | – |

From patent US10513534B2, “2′-chloro nucleoside analogs for HCV infection” (priority 2012, dated 2019)
